Test results reported in ChEMBL document CHEMBL1138669, “Dipeptidyl peptidase IV inhibitors for the treatment of diabetes” (J Med Chem, 2004).

Experiment: Half life was determined
Assay type: ADME
Conditions: rat

- half-life: 50 min
Compound: N#Cc1ccc(NCCNCC(=O)N2CCC[C@H]2C#N)nc1
